A melting point compilation (Tetko et al.; mined from patent text by program, amines drawn as free bases though some values may be those of a salt)

| melting point [°C] | SMILES |
| --- | --- |
| 178 to 180 | CNc1nc(-c2cccc(NC(=O)c3ccc(O)cc3)c2)c2cc(OC)c(OC)cc2n1 |
| 124 to 126 | CCCCCCCCCCOc1ccc(C(=O)O)o1 |
| 258 to 260 | CS(=O)(=O)c1cccc(NC(=O)c2cnn3ccc(-c4ccc(Cl)cc4)nc23)c1 |
| 133 to 134 | Cc1ncccc1CCCC(C)NC(=O)C(O)c1ccccc1 (stereo unspecified) |
| 139 to 142 | O=C(O)C1=NOC2(CCC(C3CCCCC3)CC2)C1 (stereo unspecified) |
| 108 to 110 | COc1ccc(Nc2nc(C=O)cs2)cc1 |
| 110 to 115 | CCOC(=O)c1ccc(NC(=O)c2ccccc2C)cc1 |
| 144 | Cc1ccc(N)cc1Nc1ncc(-c2ccc(C#N)cc2)o1 |
| 68 to 75 | COC(=O)C(c1ccc(OCCNC(=O)C2Cc3ccccc3N2S(=O)(=O)c2ccc(-c3cc(C(F)(F)F)ccc3Cl)cc2)cc1)C(C)C (stereo unspecified) |
| 206 to 209 | OC1CSC(Oc2cccc(-c3cnccn3)c2)C(O)C1O (stereo unspecified) |
| 53 to 54 | C#CC1(OC(=O)NCc2ccccc2)CCN(CCC=C(c2ccc(F)cc2)c2ccc(F)cc2)CC1 |
| 130 to 133 | CCCn1c(=O)c(C(=O)OCC)c(O)c2cnc(SC)nc21 |
| 221 to 223 | CC(C)(O)c1cnn2c(-c3cccc(-c4ccncc4)c3F)cnc2n1 |
| 122 | CCCCc1c(/C=C/C(=O)Oc2ccc([N+](=O)[O-])cc2)cc(OC)c2ccccc12 |
| 115 to 117 | CN1CCCC1=NC(=O)Nc1ccc(OCc2ccccc2)c(Cl)c1 |
| 159 to 161 | CC1(C)OC(=O)C(Oc2cc(F)cc(F)c2)=C1c1ccc(S(C)(=O)=O)cc1 |
| 167 to 168 | CCOC(=O)c1cccc(-c2cn(C)cc(-c3ccccc3)c2=O)c1 |
| 142 to 145 | NCCN1C(=O)CN(c2ccc(Cl)cc2)C1=O |
| 152 to 153 | CCCc1ccc(Oc2c(-c3ccc(S(C)(=O)=O)cc3)cnn(CC(F)(F)F)c2=O)cc1 |
| 128 to 131 | CCN1CC(=O)N(c2ccccc2SC)C1=S |
| 65 to 68 | N#CC=C(c1ccccc1C(F)(F)F)c1ccccc1C(F)(F)F |
| 78 | Cc1c(C(F)(F)C(F)(F)F)oc2c(C=O)cccc12 |
| 147 | CCCCSc1ccc(C(=O)Nc2ccc3cc(CN4CCCC4)cnc3c2C)cc1 |

| melting point [°C] | SMILES |
| --- | --- |
| 116 to 119 | Cc1cn(C(C)(C)C(=O)Nc2ccccc2)nc1-c1ccccc1 |
| 148 | CCCCNC(=O)c1nc(-c2ccccc2)c(-c2ccc(=O)n(C(C)C)n2)s1 |
| 78 to 80 | COC(=O)C(=CN(C)C)C(=O)C=Cc1ccc(Cl)cc1 |
| 135 to 136 | CC1(C)CC2(CC(C)(C)C1Cc1ccccc1)C(=O)C(Cc1ccccc1)C(=O)C2Cc1ccccc1 (stereo unspecified) |
| 261 to 263 | COc1cc2c(cc1S(=O)(=O)c1ccc(C)cc1)[C@@H](N1CCCCC1=O)[C@H](O)C(C)(C)O2 (relative stereo) |
| 143 to 145 | COCCOC(=O)c1ccc(C)c(-n2c(C)cc(OCc3ccccc3CNC(=O)Nc3cc(C(C)(C)C)nn3-c3cccc(OCCO)c3)c(Cl)c2=O)c1 |
| 76 to 78 | Cc1cccc(OCCO)c1 |
| 58.5 to 59.5 | COC(=O)c1ccc(F)c([N+](=O)[O-])c1 |
| 233 | CCS(=O)(=O)Nc1cc(-n2ncc(=O)n(C)c2=O)c(F)cc1C#N |
| > 280 | C[C@@H]1CCCC[C@@H]1Nc1c(C(N)=O)cnc2[nH]c(-c3ccc(F)cc3)cc12 |
| 227 to 237 | COc1ccc(NC(=O)c2c(Cl)cccc2Cl)c2nccc(N3CCN(C)C3=O)c12 |
| 79.5 to 82.5 | COc1ccccc1COC(=O)C(O)CNCCc1ccc(OC)c(OC)c1 (stereo unspecified) |
| 177 to 178 | CC(C)(C)n1c(=O)n(-c2ccnc(N)c2)c2ccccc21 |
| 131 to 132 | Cc1cc2c(c3ccc(=O)[nH]c13)OC(CNC(=O)[C@@H]1CCCN1C(=O)OCc1ccccc1)C2 (stereo partly specified) |
| 92 | Cc1nn(C(=O)NC2CCCCC2)c(=O)n1NC(C)C |
| 143 to 144 | CCOc1nn(Cc2ccc(OCc3nc(-c4ccccc4)oc3C)nc2)cc1CCC(=O)O |
| 105 to 110 | CC(=O)N1CCC2(CC1)CC(=O)c1cc(S(C)(=O)=O)ccc1O2 |
| 170 to 171 | Cc1noc(C)c1Cn1cc(N2C(=O)c3ccccc3C2=O)cn1 |
| 95 | OCC1OC(OCc2ccccc2)C(O)C1O (stereo unspecified) |
| 152 to 155 | Cc1c(NC(=O)c2ccc(OCC3CC3)cc2)ccc2cc(CN3CCC(C)(O)CC3)n(C)c12 |
| 116 | C=C[Si]12OC3CC(CC(C3)O1)O2 |
| 161 to 163 | CCOc1cc(NC(C)=O)c(Cl)cc1C(=O)NCC1CN(Cc2ccc(F)cc2)CCO1 (stereo unspecified) |
| 274 to 275 | Cc1c(CO)c2c(c(C)c1NC(=O)CC(C)(C)C)C(c1ccc(C(C)C)cc1)CO2 (stereo unspecified) |

| melting point [°C] | SMILES |
| --- | --- |
| 91 to 92 | CCCc1nn(-c2ccc(C(F)(F)F)cn2)cc1CCCCOc1ccc(CCC(=O)O)c(OC)c1 |
| 100 | COc1ccc([N+](=O)[O-])cc1CC#N |
| 189 to 190 | O=c1[nH]cc(Cc2ccncc2)c2ccccc12 |
| 143 to 144 | CCCCCCCCCOC1C(O)C(CO)OC1n1cnc2c(N)ncnc21 (stereo unspecified) |
| 104 to 106 | CCCC=Cc1c(C(C)C)nc(C(C)C)c(C(=O)OCC)c1-c1ccc(-c2ccccc2)cc1 |
| 99 | Oc1ccc(SCCCN2CCOCC2)c(O)c1 |
| 175 | Nc1cc2nc(N)c(-c3ccccc3Cl)cc2cn1 |
| 158 | CC#CCOc1ccc(S(=O)[C@@H](C(=O)NO)c2ccc(-c3cccs3)cc2)cc1 (stereo partly specified) |
| 136 to 137 | CS(=O)(=O)c1nccc(-c2ccccc2)n1 |
| 63 to 65 | CCC(=O)Nc1ccc(OC)cc1OC |
| 138 | O=C(c1ccc(F)cc1)c1ccc2nc(Cl)nc(-c3cccc(Cl)c3)c2c1 |
| 80 to 82 | CN(CCc1ccccc1)CCc1ccc(Nc2ncc3c(n2)-c2ccccc2C(c2cccc(Br)c2)C3)cc1 (stereo unspecified) |
| 138 | CN(C)CC(O)COc1ccc(C=CC(=O)N2CCc3c([nH]c4ccccc34)C2c2ccc3c(c2)CCO3)cc1 (stereo unspecified) |
| 251 to 252 | CC(C)(C)CN1C(=O)[C@@H](CC(=O)NCc2nnn[nH]2)O[C@H](c2ccccc2Cl)c2cc(Cl)ccc21 (relative stereo) |
| 171 to 173 | CNC(=O)c1ccc(-c2ccc3nnn(C(C)(C)c4ccc5ncccc5c4)c3n2)cc1F |
| 270 | Cc1cc(-c2nnc3c4ccccc4c(OCc4ccnn4C)nn23)no1 |
| 301 | Cn1ncc2[nH]c3ccc(F)cc3c(=O)c21 |
| 93 to 94 | CC(C)OC(=O)C(C(=O)NCc1ccccc1)=C1SCS1 |
| 112 to 113 | Nc1cccc(Oc2ccc(Sc3ccc(Oc4cccc(N)c4)cc3)cc2)c1 |
| 76 to 77 | O=C(CC[C@H]1CC1(c1ccccc1)c1ccccc1)Oc1ccc([N+](=O)[O-])cc1 |
| 198 to 200 | COc1cc2ncc(C#N)c(Nc3cc(C)ccc3O)c2cc1OC |
| 116 to 119 | CCOC(=O)OC1=C(c2c(C)cc(C)cc2C)C(=O)N(N(C)C)C12CCN(OC)CC2 |
| 235 to 240 | CNC(=O)C(Cc1ccc(OC)cc1)NC(=O)CC(SC(C)=O)C(CC(C)C)C(N)=O (stereo unspecified) |

| melting point [°C] | SMILES |
| --- | --- |
| 144 to 145 | CN(C)CCCC1(C(=O)O)CCCCC1(O)c1ccccc1 (stereo unspecified) |
| 301 to 303 | Cc1cc2ncc(-c3nnnn3C)c(O)c2cc1C |
| 155 to 158 | COc1cc(N)cc(C)c1OCCCN1CCN(c2cccc3sccc23)CC1 |
| 118 to 120 | CN1C(=O)C(c2cccc(O)c2)(c2cnn(CC(F)(F)F)c2)N=C1N (stereo unspecified) |
| 137 to 139 | N#Cc1cnc2sc(-c3ccccc3C=O)cc2c1Nc1cccc2[nH]ccc12 |
| 184 to 186 | O=C(O)c1cc(C(F)(F)F)cc(S(=O)(=O)Cc2ccccc2)c1 |
| 95 | CCOC(=O)C1=C(N(C)C)N=C(C)C(C(=O)OC)C1c1cccc([N+](=O)[O-])c1 (stereo unspecified) |
| 48 to 50 | CC1(CO)Cc2ccccc2C1(C)C (stereo unspecified) |
| 170 | CN(CCOc1ccc2ccc(N)nc2n1)C(=O)OC(C)(C)C |
| 70.5 to 71 | Fc1ccc(-c2cc(SC(F)(F)C(F)F)[nH]c2-c2ccc(F)cc2)cc1 |
| 82 to 83 | CCN(CC)CCCNC(=O)Cn1ncc(-c2ccccn2)c1-c1ccccc1 |
| 123 | O=S1(=O)c2cccc3cccc(c23)N1CCCCN1CCN(c2nsc3ccccc23)CC1 |
| 96 to 98 | COc1ccc(Cc2cnc(N)nc2N)cc1OCCCNS(=O)(=O)c1ccc(NC(C)=O)cc1 |
| 75 | O=C1CCc2cc(-c3ccccc3)ccc21 |
| 144 to 146 | O=C(NCCOc1ccc(CC(Oc2cc(F)c(F)c(F)c2)C(=O)O)cc1)c1ccc(-c2ccccn2)cc1 (stereo unspecified) |
| 100 to 101 | CC1(C)CCc2c(N3CCOCC3)nc3sc4c(NCCN5CCOCC5)ncnc4c3c21 |
| 155 to 157 | CCCCc1ccc(CCCCS(=O)(=O)Cc2cccc(/C=C/c3cccc(NC(=O)CC(CC)(CC)C(=O)O)c3)n2)cc1 |
| 206 to 208 | COc1cc(NC(C)=O)c(Cl)cc1C(=O)[NH+]([O-])C1CCN(CC2CCCCC2)CC1 (stereo unspecified) |
| 136 to 138 | CCN(CC)c1ccc2c(-c3ccc(C#Cc4ccccc4)cc3)cc(=O)oc2c1 |
| 284 to 288 | NC(=O)c1cccc(C(N)=O)c1N |
| 173 to 175 | O=C(NOCCO)c1ccc(F)c(F)c1Nc1ccc(I)cc1Cl |
| 150 | COc1ccc2nc(C)c(CCCl)c(=O)n2c1 |
| 181 to 182 | CC(=O)c1c(Cl)c(Cl)c([N+](=O)[O-])c2c1OCCO2 |

| SMILES | melting point [°C] |
| --- | --- |
| CCCN(CCC)Cc1cnc(-c2ncn3c2CN(C)C(=O)c2cc(F)ccc2-3)o1 | 123 to 125 |
| O=C1CCC(=O)N(c2ccc(N3CCN(C4(c5ccc(-c6ccccc6)cc5)C(=O)NC(=O)NC4=O)CC3)cc2)C1 | 300 to 301 |
| COc1ccc2c(C(=O)c3cc(OC)c(OC)c(OC)c3)c(-c3ccc(OC)c(O)c3)[nH]c2c1 | 189 to 190 |
| N#CC(=NO)c1cccnc1 | 234 to 238 |
